From ChEMBL document CHEMBL1128364 (J Med Chem, 1995)
Numbered stars: 1 amine (or outer) side, 2 acyl side, 3 side chain; on linkers, the order of the positions; unused ones are H or OH. Bridge positions count the residues as written; N and C are the ends. Square brackets hold non-standard residues; d marks the D form. Peptide text beside a SMILES is read from it. X2 = O=C(CC1(S[*:2])CCCCC1)[*:1]

What was measured:
Rattus norvegicus [1] = experiment: (§1) In vivo anti-oxytocic activity was determined.; format: functional
Rattus norvegicus [2] = experiment: as §1; format: functional, organism-based; details: read-out: pA2 (converted)
Oxytocin receptor [3] = biological target: T1, Oxytocin receptor (Rattus norvegicus, UniProt P70536); experiment: In vitro anti-oxytocic activity with 0.5 mM Mg2+.; details: for Kb: read-out: pA2 (converted)
T1 sequence (P70536 whole entry): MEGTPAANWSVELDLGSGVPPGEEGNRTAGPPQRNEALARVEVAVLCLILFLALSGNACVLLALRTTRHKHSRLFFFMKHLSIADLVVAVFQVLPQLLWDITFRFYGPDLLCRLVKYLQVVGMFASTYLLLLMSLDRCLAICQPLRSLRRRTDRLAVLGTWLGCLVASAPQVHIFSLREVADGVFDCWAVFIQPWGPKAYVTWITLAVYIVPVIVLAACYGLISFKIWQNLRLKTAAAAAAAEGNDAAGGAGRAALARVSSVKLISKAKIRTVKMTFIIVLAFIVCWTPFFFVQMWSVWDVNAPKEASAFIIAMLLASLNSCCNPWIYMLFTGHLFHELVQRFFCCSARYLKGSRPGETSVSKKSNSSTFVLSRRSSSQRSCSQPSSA

Vasopressin V1a receptor = Vasopressin V1a receptor (Rattus norvegicus, UniProt P30560); experiment: (§2) Anti-vasopressor activity at V1a receptor; details: for Kb: read-out: pA2 (converted)
Oxytocin receptor [4] = biological target: T1, Oxytocin receptor; experiment: In vitro antioxycic activity with out Mg2+.; details: read-out: pA2 (converted)
Vasopressin V2 receptor = Vasopressin V2 receptor (Rattus norvegicus, UniProt Q00788); experiment: (§3) Antidiuretic activity at V2 receptor; format: tissue-based, Urine; details: read-out: pA2 (converted)
Rattus norvegicus [5] = experiment: (§4) In vivo activity for the anti-oxytocic activity.; format: functional
Oxytocin receptor [6] = biological target: T1, Oxytocin receptor; experiment: In vitro anti-oxytocic activity with out Mg2+.; details: for Kb: read-out: pA2 (converted)
[7] = biological target: Vasopressin V1a receptor (Rattus norvegicus) (UniProt P30560); experiment: as §2
[8] = biological target: Vasopressin V2 receptor (Rattus norvegicus) (UniProt Q00788); experiment: as §3; format: tissue-based; details: Urine
[9] = biological target: Vasopressin V2 receptor (Rattus norvegicus) (UniProt Q00788); experiment: Antidiuretic activity at V2 receptor.; details: Urine
Rattus norvegicus [10] = experiment: as §4; format: functional, organism-based; details: read-out: pA2 (converted)

Sequence of Vasopressin V1a receptor (P30560 whole entry): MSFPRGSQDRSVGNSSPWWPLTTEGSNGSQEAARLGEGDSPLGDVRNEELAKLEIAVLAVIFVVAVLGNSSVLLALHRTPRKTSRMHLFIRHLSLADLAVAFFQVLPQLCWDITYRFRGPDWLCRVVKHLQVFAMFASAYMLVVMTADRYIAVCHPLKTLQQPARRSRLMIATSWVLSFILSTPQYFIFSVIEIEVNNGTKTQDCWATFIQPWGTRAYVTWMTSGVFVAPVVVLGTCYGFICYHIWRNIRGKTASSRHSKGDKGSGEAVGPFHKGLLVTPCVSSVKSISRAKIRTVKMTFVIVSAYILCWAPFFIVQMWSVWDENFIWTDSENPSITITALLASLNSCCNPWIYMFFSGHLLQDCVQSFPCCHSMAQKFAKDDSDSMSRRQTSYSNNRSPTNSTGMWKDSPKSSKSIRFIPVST
Sequence of Vasopressin V1a receptor (Rattus norvegicus) (P30560 whole entry, looked up): as the sequence (P30560 whole entry) above
Sequence of Vasopressin V2 receptor (Q00788 whole entry): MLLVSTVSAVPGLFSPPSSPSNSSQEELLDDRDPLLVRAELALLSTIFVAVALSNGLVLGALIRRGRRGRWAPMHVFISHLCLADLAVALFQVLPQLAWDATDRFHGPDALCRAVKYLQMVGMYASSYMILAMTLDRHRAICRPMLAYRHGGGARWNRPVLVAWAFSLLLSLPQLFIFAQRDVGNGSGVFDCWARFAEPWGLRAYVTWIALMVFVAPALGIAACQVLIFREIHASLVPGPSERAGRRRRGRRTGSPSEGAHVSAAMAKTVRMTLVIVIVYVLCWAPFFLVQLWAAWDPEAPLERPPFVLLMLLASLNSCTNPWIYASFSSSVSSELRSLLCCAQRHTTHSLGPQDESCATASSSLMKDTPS
Sequence of Vasopressin V2 receptor (Rattus norvegicus) (Q00788 whole entry): as above

CC[C@H](C)[C@@H]1NC(=O)[C@@H](Cc2c[nH]c3ccccc23)NC(=O)CC2(CCCCC2)SSC[C@@H](C(=O)N2CCC[C@H]2C(=O)N[C@@H](CCCN)C(=O)NCC(N)=O)NC(=O)[C@H](CC(N)=O)NC(=O)[C@H]([C@@H](C)O)NC1=O [listing 1 of 2 here]
ED (Rattus norvegicus [1]): 3.08 nM/kg

CC[C@H](C)[C@@H]1NC(=O)[C@H](Cc2ccc(OC)cc2)NC(=O)CC2(CCCCC2)SSC[C@H](C(=O)N2CCC[C@H]2C(=O)N[C@@H](CCCN)C(=O)N[C@@H](Cc2ccc(O)cc2)C(N)=O)NC(=O)[C@H](CC(N)=O)NC(=O)[C@H]([C@@H](C)O)NC1=O [listing 1 of 2 here]
Kb (Rattus norvegicus [2]): 83.2 nM
Kb (Oxytocin receptor [3]): 38.9 nM
Kb (Vasopressin V1a receptor): 148 nM
Kb (Oxytocin receptor [4]): 11 nM
Kb (Vasopressin V2 receptor): 3160 nM

CCOc1ccc(C[C@H]2NC(=O)CC3(CCCCC3)SSC[C@H](C(=O)N3CCC[C@H]3C(=O)N[C@@H](CCCN=C(N)N)C(=O)NCC(N)=O)NC(=O)[C@H](CC(N)=O)NC(=O)[C@H](C(C)C)NC(=O)[C@H](Cc3ccccc3)NC2=O)cc1 [listing 1 of 2 here]
ED (Rattus norvegicus [5]): 4.8 nM/kg

CC[C@H](C)[C@@H]1NC(=O)[C@@H](Cc2c[nH]c3ccccc23)NC(=O)CC2(CCCCC2)SSC[C@@H](C(=O)N2CCC[C@H]2C(=O)N[C@@H](CCCN)C(=O)NCC(N)=O)NC(=O)[C@H](CC(N)=O)NC(=O)[C@H]([C@@H](C)O)NC1=O [listing 2 of 2 here]
Kb (Rattus norvegicus [2]): 45.7 nM
pA2 (Oxytocin receptor [3]): 7.64
pA2 (Oxytocin receptor [6]): 8.02
pA2 (Vasopressin V1a receptor): 5.43

COc1ccc(C[C@@H]2NC(=O)CC3(CCCCC3)SSC[C@H](C(=O)N3CCC[C@H]3C(=O)N[C@@H](CCCN=C(N)N)C(=O)NCC(N)=O)NC(=O)[C@H](CC(N)=O)NC(=O)[C@H](CCC(N)=O)NC(=O)[C@H](Cc3ccccc3)NC2=O)cc1
ED (Rattus norvegicus [5]): 17 nM/kg

CC(C)[C@@H]1NC(=O)[C@H](Cc2ccccc2)NC(=O)[C@@H](Cc2ccccc2)NC(=O)CC2(CCCCC2)SSC[C@H](C(=O)N2CCC[C@H]2C(=O)N[C@@H](CCCN=C(N)N)C(=O)NCC(N)=O)NC(=O)[C@H](CC(N)=O)NC1=O
ED [7]: 1.9 nM/kg
Kb (Vasopressin V1a receptor): 27.5 nM
Kb (Vasopressin V2 receptor): 56.2 nM
ED [8]: 3.9 nM/kg

CC[C@H](C)[C@@H]1NC(=O)[C@H](Cc2ccc(OC)cc2)NC(=O)CC2(CCCCC2)SSC[C@H](C(=O)N2CCC[C@H]2C(=O)N[C@@H](CCCN)C(=O)O)NC(=O)[C@H](CC(N)=O)NC(=O)[C@H]([C@@H](C)O)NC1=O [listing 1 of 2 here]
ED (Rattus norvegicus [1]): 9.24 nM/kg

CCOc1ccc(C[C@H]2NC(=O)CC3(CCCCC3)SSC[C@@H](C(=O)N3CCC[C@H]3C(=O)N[C@@H](CCCN=C(N)N)C(=O)NCC(N)=O)NC(=O)[C@H](CC(N)=O)NC(=O)[C@H](C(C)C)NC(=O)[C@H](Cc3ccccc3)NC2=O)cc1
ED [7]: 0.45 nM/kg
Kb (Vasopressin V1a receptor): 6.03 nM
ED [8]: 1.1 nM/kg

CC[C@H](C)[C@@H]1NC(=O)[C@H](Cc2ccc(OC)cc2)NC(=O)CC2(CCCCC2)SSC[C@H](C(=O)N2CCC[C@H]2C(=O)N[C@@H](CCCN)C(=O)N[C@@H](Cc2ccc(O)cc2)C(N)=O)NC(=O)[C@H](CC(N)=O)NC(=O)[C@H]([C@@H](C)O)NC1=O [listing 2 of 2 here]
ED (Rattus norvegicus [1]): 5.63 nM/kg

CC[C@H](C)[C@@H]1NC(=O)[C@H](Cc2cc3ccccc3[nH]2)NC(=O)CC2(CCCCC2)SSC[C@H](C(=O)N2CCC[C@H]2C(=O)N[C@@H](CCCN=C(N)N)C(=O)NCC(N)=O)NC(=O)[C@H](CC(N)=O)NC(=O)[C@H](CCC(N)=O)NC1=O
ED [7]: 2 nM/kg

NC(=O)CC[C@@H]1NC(=O)[C@H](Cc2ccccc2)NC(=O)[C@H](Cc2ccc(O)cc2)NC(=O)[C@H](N)CSSC[C@H](C(=O)N2CCC[C@H]2C(=O)N[C@@H](CCCN=C(N)N)C(=O)NCC(N)=O)NC(=O)[C@H](CC(N)=O)NC1=O
Antidiuretic activity [9]: 0.82 U mg-1

CC[C@H](C)[C@@H]1NC(=O)[C@@H](Cc2c[nH]c3ccccc23)NC(=O)CC2(CCCCC2)SSC[C@@H](C(=O)N2CCC[C@H]2C(=O)N[C@@H](CCCN=C(N)N)C(=O)NCC(N)=O)NC(=O)[C@H](CC(N)=O)NC(=O)[C@H](CCC(N)=O)NC1=O ([dW]IQNCPRG-NH2; linker N-5 via X2)
Kb (Vasopressin V1a receptor): 27.5 nM
Kb (Vasopressin V2 receptor): > 1260 nM

CCOc1ccc(C[C@@H]2NC(=O)CC3(CCCCC3)SSC[C@H](C(=O)N3CCC[C@H]3C(=O)N[C@@H](CCCN=C(N)N)C(=O)NCC(N)=O)NC(=O)[C@H](CC(N)=O)NC(=O)[C@H](C(C)C)NC(=O)[C@H](Cc3ccccc3)NC2=O)cc1
Kb (Vasopressin V1a receptor): 64.6 nM

CC[C@H](C)[C@@H]1NC(=O)[C@@H](Cc2c[nH]c3ccccc23)NC(=O)CC2(CCCCC2)SSC[C@H](C(=O)N2CCC[C@H]2C(=O)N[C@@H](CCCN=C(N)N)C(=O)NCC(N)=O)NC(=O)[C@H](CC(N)=O)NC(=O)[C@H](CCC(N)=O)NC1=O ([dW]IQN[dC]PRG-NH2; linker N-5 via X2)
Kb (Vasopressin V1a receptor): 29.5 nM
Kb (Vasopressin V2 receptor): > 2510 nM

CC[C@H](C)[C@@H]1NC(=O)[C@@H](Cc2cc3ccccc3[nH]2)NC(=O)CC2(CCCCC2)SSC[C@@H](C(=O)N2CCC[C@H]2C(=O)N[C@@H](CCCN=C(N)N)C(=O)NCC(N)=O)NC(=O)[C@H](CC(N)=O)NC(=O)[C@H](CCC(N)=O)NC1=O
ED [7]: 2 nM/kg

CCOc1ccc(C[C@@H]2NC(=O)CC3(CCCCC3)SSC[C@@H](C(=O)N3CCC[C@H]3C(=O)N[C@@H](CCCN=C(N)N)C(=O)NCC(N)=O)NC(=O)[C@H](CC(N)=O)NC(=O)[C@H](C(C)C)NC(=O)[C@H](Cc3ccccc3)NC2=O)cc1
Kb (Rattus norvegicus [10]): 182 nM
ED [7]: 0.14 nM/kg
Kb (Vasopressin V1a receptor): 6.92 nM
ED [8]: 1.9 nM/kg
ED (Rattus norvegicus [5]): 13 nM/kg

CC[C@H](C)[C@@H]1NC(=O)[C@H](Cc2ccc(OC)cc2)NC(=O)CC2(CCCCC2)SSC[C@@H](C(=O)N2CCC[C@H]2C(=O)N[C@@H](CCCN)C(=O)NCC(N)=O)NC(=O)[C@H](CC(N)=O)NC(=O)[C@H](CCC(N)=O)NC1=O
Kb (Oxytocin receptor [3]): 13.2 nM
ED [7]: 0.8 nM/kg
Kb (Vasopressin V1a receptor): 11 nM
Kb (Oxytocin receptor [4]): 3.02 nM
Antidiuretic activity [8]: 0.01 U mg-1

CC[C@H](C)[C@@H]1NC(=O)[C@H](Cc2ccc(OC)cc2)NC(=O)CC2(CCCCC2)SSC[C@H](C(=O)N2CCC[C@H]2C(=O)N[C@@H](CCCN)C(=O)NCC(N)=O)NC(=O)[C@H](CC(N)=O)NC(=O)[C@H](CCC(N)=O)NC1=O [listing 1 of 2 here]
Kb (Rattus norvegicus [2]): 46.8 nM
Kb (Oxytocin receptor [3]): 36.3 nM
Kb (Oxytocin receptor [6]): 22.4 nM
Kb (Vasopressin V1a receptor): 56.2 nM
Kb (Vasopressin V2 receptor): 1260 nM

CC[C@H](C)[C@@H]1NC(=O)[C@H](Cc2ccc(OC)cc2)NC(=O)CC2(CCCCC2)SSC[C@@H](C(=O)N2CCC[C@H]2C(=O)N[C@@H](CCCN)C(=O)O)NC(=O)[C@H](CC(N)=O)NC(=O)[C@H]([C@@H](C)O)NC1=O
Kb (Oxytocin receptor [3]): 5.75 nM
Kb (Oxytocin receptor [6]): 12.9 nM
ED [7]: 23 nM/kg
Kb (Vasopressin V1a receptor): 331 nM
Kb (Vasopressin V2 receptor): 3160 nM

CC[C@H](C)[C@@H]1NC(=O)[C@H](Cc2ccc(O)cc2)N(C)C(=O)CC2(CCCCC2)SSC[C@H](C(=O)N2CCC[C@H]2C(=O)N[C@@H](CCCN)C(=O)NCC(N)=O)NC(=O)[C@H](CC(N)=O)NC(=O)[C@H](CCC(N)=O)NC1=O
ED [7]: 3.73 nM/kg

CC(C)[C@@H]1NC(=O)[C@H](Cc2ccccc2)NC(=O)[C@@H](Cc2ccccc2)NC(=O)CC2(CCCCC2)SSC[C@@H](C(=O)N2CCC[C@H]2C(=O)N[C@@H](CCCN=C(N)N)C(=O)NCC(N)=O)NC(=O)[C@H](CC(N)=O)NC1=O
Kb (Vasopressin V1a receptor): 8.71 nM
Kb (Vasopressin V2 receptor): 8.51 nM

CC(C)[C@@H]1NC(=O)[C@@H](Cc2ccccc2)NC(=O)[C@@H](Cc2ccccc2)NC(=O)CC2(CCCCC2)SSC[C@@H](C(=O)N2CCC[C@H]2C(=O)N[C@@H](CCCN=C(N)N)C(=O)NCC(N)=O)NC(=O)[C@@H](CC(N)=O)NC1=O
ED [7]: 0.58 nM/kg
ED [8]: 0.67 nM/kg

CC[C@H](C)[C@@H]1NC(=O)[C@H](Cc2ccc(OC)cc2)NC(=O)CC2(CCCCC2)SSC[C@@H](C(=O)N2CCC[C@H]2C(=O)N[C@@H](CCCN)C(=O)N[C@@H](Cc2ccc(O)cc2)C(N)=O)NC(=O)[C@H](CC(N)=O)NC(=O)[C@H]([C@@H](C)O)NC1=O
Kb (Oxytocin receptor [3]): 5.25 nM
ED [7]: 6.6 nM/kg
Kb (Vasopressin V1a receptor): 95.5 nM
Kb (Oxytocin receptor [4]): 23.4 nM
Antidiuretic activity [8]: 0.015 U mg-1

CC[C@H](C)[C@@H]1NC(=O)[C@H](Cc2ccc(OC)cc2)NC(=O)CC2(CCCCC2)SSC[C@H](C(=O)N2CCC[C@H]2C(=O)N[C@@H](CCCN)C(=O)NCC(N)=O)NC(=O)[C@H](CC(N)=O)NC(=O)[C@H](CCC(N)=O)NC1=O [listing 2 of 2 here]
ED (Rattus norvegicus [1]): 3.11 nM/kg

CC[C@H](C)[C@@H]1NC(=O)[C@H](Cc2ccc(OC)cc2)NC(=O)CC2(CCCCC2)SSC[C@H](C(=O)N2CCC[C@H]2C(=O)N[C@@H](CCCN)C(=O)O)NC(=O)[C@H](CC(N)=O)NC(=O)[C@H]([C@@H](C)O)NC1=O [listing 2 of 2 here]
Kb (Rattus norvegicus [2]): 138 nM
Kb (Oxytocin receptor [3]): 25.1 nM
Kb (Oxytocin receptor [6]): 18.6 nM
Kb (Vasopressin V1a receptor): 275 nM
Kb (Vasopressin V2 receptor): 3980 nM

CCOc1ccc(C[C@H]2NC(=O)CC3(CCCCC3)SSC[C@H](C(=O)N3CCC[C@H]3C(=O)N[C@@H](CCCN=C(N)N)C(=O)NCC(N)=O)NC(=O)[C@H](CC(N)=O)NC(=O)[C@H](C(C)C)NC(=O)[C@H](Cc3ccccc3)NC2=O)cc1 [listing 2 of 2 here]
Kb (Rattus norvegicus [10]): 69.2 nM
Kb (Vasopressin V1a receptor): 8.71 nM
